Data from PubChem BioAssay AID743368.

The compounds below were run against Acetylcholine receptor subunit alpha (Mus musculus) (UniProt P04756) (assay: blockade of mouse muscle nicotinic receptor currents – cell-based, Mus musculus, Xenopus oocytes (AID 743368)). Settings: two-electrode voltage clamp, ACh-evoked current.
Acetylcholine receptor subunit alpha (Mus musculus), sequence (P04756 whole entry, looked up): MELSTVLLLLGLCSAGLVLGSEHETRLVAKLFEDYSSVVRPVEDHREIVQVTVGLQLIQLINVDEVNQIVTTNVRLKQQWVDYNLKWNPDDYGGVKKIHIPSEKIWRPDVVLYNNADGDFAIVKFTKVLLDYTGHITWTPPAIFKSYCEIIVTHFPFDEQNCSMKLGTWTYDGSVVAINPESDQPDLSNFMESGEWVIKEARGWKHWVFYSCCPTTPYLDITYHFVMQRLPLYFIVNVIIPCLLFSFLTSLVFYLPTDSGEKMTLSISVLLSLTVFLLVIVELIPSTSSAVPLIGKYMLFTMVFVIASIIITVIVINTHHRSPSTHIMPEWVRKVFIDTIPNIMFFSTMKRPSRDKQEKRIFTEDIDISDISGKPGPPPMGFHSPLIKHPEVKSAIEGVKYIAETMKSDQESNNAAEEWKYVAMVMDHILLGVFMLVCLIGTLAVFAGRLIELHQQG
For `CC/C=C/[C@@H]1CC[C@]2(C[C@H]3CC[C@H]4[C@@H](C(=O)OC(CC)CCCCCCCCCCCCC[C@@H]5O[C@](O)(CCN)[C@H](O)N(CCCN)C5=O)[C@@]5(CCC[C@H](C)O5)NC(=[N+]34)N2)O1` (stereo partly drawn), the IC50 was 4.1 µM.
`COn1c(Br)c2c3c(cccc31)[C@H]1C[C@@H](C)CN(C)[C@@H]1C2` showed an IC50 of 3.7 µM.
Compound `COc1cc(CCN)c2c(c1OC)SSSSS2` has an IC50 of 8.7 µM.
